Assay results reported in patent US10045954B2, “Use of novel anti-HPV pharmaceutical preparation” (INSTITUTE OF BIOMEDICAL ENGINEERING, CHINESE ACADEMY OF …, priority 2013, dated 2018).

System: human cervical cancer Caski cells (HPV16 positive)
Experiment: Cytotoxicity assay (MTT, Reed-Muench)
Type: cell-based
Conditions: 72 h
Protocol: (1) Cytotoxicity assay: human cervical cancer Caski cells (HPV16 positive) at an exponential phase cultured through a conventional culturing method is digested by a trypsase, such that the attached cells are detached. The cells are suspended in a liquid medium containing 10% of fetal bovine serum, and are cultured by inoculating in a 96-well plate, each well containing 1×10^5 cells. The cells are incubated in a CO2 incubator for 24 h to make the cells be attached. labeled amount of paracetamol or paracetamol pharmaceutical preparation prepared from examples 1-21 is dissolved in DMSO used for cell culture, and then the solution is diluted with the liquid medium into a series of drug culture media with increasing concentrations, wherein the concentrations are sequentially 25, 50, 100, 200 and 400 μg/mL. The culture medium is decanted, 100 μL drug culture medium formulated according to a multiple relationship is added into the administered group, while a culture medium is used instead of the drug solution for the control group, wherein four vice holes are used at each concentration, and the cells are incubated in a CO2 incubator for 72 h. The median toxic concentration (TC50) and maximal atoxic concentration (TC0) are calculated based on a Reed-Muench method, by using a MTT method.

In the case of `CC(=O)Nc1ccc(O)cc1` [Example 1, paracetamol], the TC0 is reported as 200 µg/mL and the TC50 is reported as >200 µg/mL.
